Source: paper PMC4663795, “Alkanols inhibit voltage-gated K^+ channels via a distinct gating modifying mechanism that prevents gate opening” (Scientific Reports, 2015)
Values joined by “and” are separate entries in the source; they are usually repeats but may differ in a detail not shown here. Equal entries are not always repeated. Where two headings read alike, the source gives them in different places.

Assays:
Shaker-IR channel = molecular target: T1, Shaker-IR channel (Drosophila melanogaster, UniProt P08510, DEL6-46); test: cell-based; type: cell-based; details: for GV curve V1/2: voltage dependence of gate opening; for IC50: normalized steady-state IK amplitude at 0 mV, Hill fit, read-out: IC50 of ionic current (IK) inhibition; for Hill coefficient of IK inhibition concentration-response curve: steady-state IK at 0 mV
T1 construct: expressed in transfected cells; host or cells: HEK293
Source text: (§1) The N-terminal deletion Δ6–46 Shaker clone (Shaker-IR), which removes fast inactivation, was used in this study. The W434F mutation, which yields a non-conducting Shaker-IR-W434F channel, and the P475A mutation were introduced as described previously. All channel constructs were expressed using a pGW1 expression vector. The plasmid that codes for the green fluorescent protein, used to identify transfected cells, was purchased from Clontech (Palo Alto, CA, USA). Plasmid DNA for mammalian expression was obtained by amplification in XL2 Bluescript cells (Stratagene), and afterwards isolated using the endotoxin-free Maxiprep kit (Macherey-Nagel, Düren, Germany). The cDNA concentration was determined by UV absorption.
(§2) HEK293 cells were cultured in Modified Eagle’s Medium (MEM) supplemented with 10% fetal bovine serum, 1% penicillin/streptomycin and 1% non-essential amino acids (Invitrogen, Carlsbad, CA, USA). Cells were transiently transfected with the appropriate channel DNA plasmids using polyethyleneimine that was purchased from Sigma-Aldrich (St Louis, MO, USA), details of procedure was described previously.
(§3) Whole-cell ionic IK or gating IG current measurements were done at room temperature (20 to 23 °C) using an Axopatch-200B amplifier and the recordings were digitized with a Digidata-1200 A acquisition system (Molecular Devices, Sunnyvale, CA, USA). Both IK and IG recordings were digitized at 10 kHz sampling rate after passing a 5 KHz Bessel low-pass filter. Command voltages and data storage were controlled with pClamp10 software. Patch pipettes were pulled from 1.2 mm quick-fill borosilicate glass capillaries (World Precision Instruments, Sarasota, FL, USA) with a P-2000 puller (Sutter Instrument Co., Novato, CA, USA) and afterwards heat-polished, to have patch pipettes with a resistance of approximately 1.5 MOhm determined with the filled pipette in the bath solution.
(§4) For IK measurements the cells were constantly superfused with external bath solution that contained (in mM) NaCl 130, KCl 4, CaCl2 1.8, MgCl2 1, HEPES 10, Glucose 10, adjusted to pH 7.35 with NaOH. The patch pipettes were filled with internal solution containing (in mM) KCl 110, K4BAPTA 5, K2ATP 5, MgCl2 1, HEPES 10, adjusted to pH 7.2 with KOH. For IG measurements the monovalent cations were replaced with N-methyl-D-glucamine (NMG^+). The bath solution contained (in mM) NMG^+ 140, HEPES 10, Glucose 10, MgCl2 1, CaCl2 1.8, titrated to pH 7.35 with HCl. The pipette solution contained (in mM) NMG^+ 140, HEPES 10, EGTA 10, MgCl2 1, titrated to pH 7.2 with HCl. Junction potentials were zeroed with the filled pipette in the bath solution and experiments were excluded from analysis if the voltage error estimate exceeded 5 mV after series resistance compensation. For IG measurements, leak currents and remaining capacitive currents were subtracted online using a −P/6 protocol (using a holding potential of −95 mV). IK recordings were not leak corrected.
(§5) For the highest concentration of 1-BuOH tested (300 mM), the osmolarity of the extracellular solution for IK or IG recordings increased by approximately 300 mOsm resulting in a total osmolarity of ~640 mOsm. […] All compounds were applied to the cells using a pressurized fast perfusion system equipped with a quartz micromanifold (ALA scientific, Farmingdale, NY, USA), allowing rapid exchange of the external solutions.
(§6) Details of pulse protocols used to elicit IK or IG recordings were adjusted to determine the biophysical properties of each construct adequately and are shown in the figures or described in legends. All the graphs were built using SigmaPlot 11.0 (Systat Software Inc., San Jose, CA, USA).

Shaker-IR-P475A [1] = molecular target: T2, Shaker-IR-P475A (Drosophila melanogaster, UniProt P08510, DEL6-46/P475A); test: cell-based; type: cell-based; details: for GV curve V1/2: from tail currents; for Hill coefficient of weighted τIKac concentration-response curve / IC50: weighted τIKac at +100 mV; for IC50: read-out: IC50 of acceleration of weighted τIKac
T2 construct: expressed in transfected cells; host or cells: HEK293
Source text: as §1, §2, §3, §4, §5, §6

Shaker-IR-W434F [2] = molecular target: T3, Shaker-IR-W434F (Drosophila melanogaster, UniProt P08510, DEL6-46/W434F); test: cell-based; type: cell-based; details: for QV curve V1/2: voltage dependence of VSD movement; for gating charge immobilized (reduction in gating charge movement): general statement, no concentration given
T3 construct: expressed in transfected cells; host or cells: HEK293
Source text: as §1, §2, §3, §4, §5, §6

Shaker-IR-W434F-P475A = molecular target: T4, Shaker-IR-W434F-P475A (Drosophila melanogaster, UniProt P08510, DEL6-46/P475A/W434F); type: cell-based
T4 construct: expressed in transfected cells; host or cells: HEK293
Source text: as §1, §2, §3, §4, §5, §6

Shaker-IR-W434F [3] = molecular target: T3, Shaker-IR-W434F; parameters: method as in PMID 11463634; details: cited from earlier work
Shaker-IR-P475A [4] = molecular target: T2, Shaker-IR-P475A; details: cited from earlier work
[5] = integrated steady-state IGac normalized to control, read-out: IC50 of reduction in total gating charge
[6] = weighted τIGdeac at −90 mV, read-out: IC50 of acceleration of VSD deactivation time constant (τIGdeac)

T3 sequence (P08510 other isoform, or with tags, fused parts or gaps DEL6-46/W434F): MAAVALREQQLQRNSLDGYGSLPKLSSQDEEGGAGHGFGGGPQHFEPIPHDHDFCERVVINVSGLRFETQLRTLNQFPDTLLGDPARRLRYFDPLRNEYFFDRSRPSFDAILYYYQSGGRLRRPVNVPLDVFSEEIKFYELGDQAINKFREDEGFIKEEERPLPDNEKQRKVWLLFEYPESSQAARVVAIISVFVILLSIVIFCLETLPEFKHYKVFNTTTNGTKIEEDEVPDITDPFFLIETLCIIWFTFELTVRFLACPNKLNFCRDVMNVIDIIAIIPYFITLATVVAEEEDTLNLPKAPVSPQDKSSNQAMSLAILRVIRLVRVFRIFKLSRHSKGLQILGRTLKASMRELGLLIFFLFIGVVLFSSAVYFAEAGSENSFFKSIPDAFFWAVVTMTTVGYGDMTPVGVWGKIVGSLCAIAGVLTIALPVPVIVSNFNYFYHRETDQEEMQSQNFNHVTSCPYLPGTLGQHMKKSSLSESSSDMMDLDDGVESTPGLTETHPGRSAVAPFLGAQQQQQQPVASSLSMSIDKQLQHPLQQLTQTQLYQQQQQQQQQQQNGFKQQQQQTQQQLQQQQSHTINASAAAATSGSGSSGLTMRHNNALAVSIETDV
T4 sequence (P08510 other isoform, or with tags, fused parts or gaps DEL6-46/W434F/P475A): as the sequence (P08510 other isoform, or with tags, fused parts or gaps DEL6-46/W434F) above, with P434A counted along it
T2 sequence (P08510 other isoform, or with tags, fused parts or gaps DEL6-46/P475A): as the sequence (P08510 other isoform, or with tags, fused parts or gaps DEL6-46/W434F) above, with F393W, P434A counted along it
T1 sequence (P08510 other isoform, or with tags, fused parts or gaps DEL6-46): as the sequence (P08510 other isoform, or with tags, fused parts or gaps DEL6-46/W434F) above, with F393W counted along it

In the case of CCCCO [1-BuOH, 1-Butanol], the “GV curve slope factor k” value (Shaker-IR channel; 50 mM 1-BuOH) is reported as 5.1 ± 0.7 mV, the “GV curve V1/2” value (Shaker-IR channel; 50 mM 1-BuOH) is reported as −28.5 ± 2.3 mV and the “time constant of current recovery upon wash-out” value (Shaker-IR channel; after 50 mM 1-BuOH) is reported as 7.6 ± 2.1 s. For the same molecule, the “time constant of development of IK inhibition” value (Shaker-IR channel; application of 50 mM 1-BuOH) was 5.2 ± 1.2 s, the IC50 (Shaker-IR channel) was ~50 mM and 50 mM and 51.8 mM and the “Hill coefficient of IK inhibition concentration-response curve” value (Shaker-IR channel) was 0.92 ± 0.04. For the same molecule, the “effect on IK of the P475A mutant” value (Shaker-IR-P475A [1]) was “concentration-dependent increase in IK”, the “GV curve slope factor k” value (Shaker-IR-P475A [1]; 100 mM 1-BuOH) was 9.6 ± 0.4 mV and the “GV curve V1/2” value (Shaker-IR-P475A [1]; 100 mM 1-BuOH) was 62 ± 1 mV. For the same molecule, the “GV curve slope factor k” value (Shaker-IR-P475A [1]; 300 mM 1-BuOH) was 6.8 ± 0.7 mV, the “GV curve V1/2” value (Shaker-IR-P475A [1]; 300 mM 1-BuOH) was 50 ± 1 mV and the “Hill coefficient of weighted τIKac concentration-response curve” value (Shaker-IR-P475A [1]) was 1.5 ± 0.4. The IC50 (Shaker-IR-P475A [1]) was 58.8 ± 3 mM, the “Hill coefficient of gating charge reduction concentration-response curve” value (Shaker-IR-W434F [2]) was 1.5 ± 0.2 and the “maximal reduction in charge movement” value (Shaker-IR-W434F [2]; 300 mM 1-BuOH) was “approximately 10%”. For the same molecule, the “τIGdeac at −120 mV” value (Shaker-IR-W434F [2]; 300 mM 1-BuOH) was 0.48 ± 0.08 ms, the “extra reduction of gating charge movement on addition to 4-AP” value (Shaker-IR-W434F [2]; 300 mM 1-BuOH in continued presence of 1 mM 4-AP) was “did not result in an extra reduction of gating charge movement” and the “QV curve V1/2” value (Shaker-IR-W434F [2]; 300 mM 1-BuOH) was −32.4 ± 3.4 mV. The “gating charge immobilized (reduction in gating charge movement)” value (Shaker-IR-W434F [2]) was 10%, the IC50 (Shaker-IR-W434F [2]; [5]) was 88 ± 2 mM and the “Hill coefficient of τIGdeac concentration-response curve” value (Shaker-IR-W434F [2]; weighted τIGdeac at −90 mV) was 1.3 ± 0.4. The IC50 (Shaker-IR-W434F [2]; [6]) was 67 ± 1 mM, the “QV curve 1st comp V1/2” value (Shaker-IR-W434F-P475A; 300 mM 1-BuOH) was −39.2 ± 1.4 mV and the “QV curve 1st comp k” value (Shaker-IR-W434F-P475A; 300 mM 1-BuOH) was 16.2 ± 1.2 mV. For the same molecule, the “QV curve 2nd comp V1/2” value (Shaker-IR-W434F-P475A; 300 mM 1-BuOH) was 52.2 ± 1.2 mV and the “QV curve 2nd comp k” value (Shaker-IR-W434F-P475A; 300 mM 1-BuOH) was 9.1 ± 1.1 mV.

In the case of Nc1ccncc1 [4-AP, 4-aminopyridine], the inhibition at 30 µM (Shaker-IR channel; HEK293, read-out: steady-state IK inhibition) is listed as about 50%, the “loss of gating charge movement” value (Shaker-IR-W434F [2]; 1 mM 4-AP) is listed as “approximately 10%” and the “reduction in gating charge movement” value (Shaker-IR-W434F [3]) is listed as 10%. The “sensitivity of the P475A mutant to the drug” value (Shaker-IR-P475A [4]) was “insensitive”.

In the case of CCCCCCO [1-HeOH, 1-Hexanol], the “GV curve slope factor k” value (Shaker-IR channel; 3 mM 1-HeOH) is reported as 7.5 ± 0.9 mV, the “GV curve V1/2” value (Shaker-IR channel; 3 mM 1-HeOH) is reported as −25.4 ± 1.2 mV and the “time constant of current recovery upon wash-out” value (Shaker-IR channel; after 3 mM 1-HeOH) is reported as 4.8 ± 1.7 s. The “time constant of development of IK inhibition” value (Shaker-IR channel; application of 3 mM 1-HeOH) was 3.7 ± 0.7 s, the IC50 (Shaker-IR channel) was ~3 mM and 2.7 mM and the “Hill coefficient of IK inhibition concentration-response curve” value (Shaker-IR channel) was 1.13 ± 0.22. The “effect on IK of the P475A mutant” value (Shaker-IR-P475A [1]) was “concentration-dependent increase in IK”, the “GV curve slope factor k” value (Shaker-IR-P475A [1]; 10 mM 1-HeOH) was 10.7 ± 0.6 mV and the “GV curve V1/2” value (Shaker-IR-P475A [1]; 10 mM 1-HeOH) was 64 ± 1 mV. For the same molecule, the “GV curve slope factor k” value (Shaker-IR-P475A [1]; 30 mM 1-HeOH) was 6.6 ± 0.6 mV, the “GV curve V1/2” value (Shaker-IR-P475A [1]; 30 mM 1-HeOH) was 49 ± 1 mV and the “Hill coefficient of weighted τIKac concentration-response curve” value (Shaker-IR-P475A [1]) was 1.3 ± 0.3. For the same molecule, the IC50 (Shaker-IR-P475A [1]) was 4.6 ± 0.8 mM, the “Hill coefficient of gating charge reduction concentration-response curve” value (Shaker-IR-W434F [2]) was 1.5 ± 0.2 and the “maximal reduction in charge movement” value (Shaker-IR-W434F [2]; 30 mM 1-HeOH) was about 12%. The “τIGdeac at −120 mV” value (Shaker-IR-W434F [2]; 30 mM 1-HeOH) was 0.53 ± 0.10 ms, the “QV curve V1/2” value (Shaker-IR-W434F [2]; 30 mM 1-HeOH) was −31.4 ± 0.9 mV and the “gating charge immobilized (reduction in gating charge movement)” value (Shaker-IR-W434F [2]) was 10%. For the same molecule, the IC50 (Shaker-IR-W434F [2]; [5]) was 13.8 ± 1.6 mM, the “Hill coefficient of τIGdeac concentration-response curve” value (Shaker-IR-W434F [2]; weighted τIGdeac at −90 mV) was 1.6 ± 0.3 and the IC50 (Shaker-IR-W434F [2]; [6]) was 3 ± 0.4 mM. For the same molecule, the “QV curve 1st comp V1/2” value (Shaker-IR-W434F-P475A; 30 mM 1-HeOH) was −35.3 ± 1.5 mV, the “QV curve 2nd comp V1/2” value (Shaker-IR-W434F-P475A; 30 mM 1-HeOH) was 50.2 ± 1.1 mV and the “QV curve 2nd comp k” value (Shaker-IR-W434F-P475A; 30 mM 1-HeOH) was 3.6 ± 1.4 mV.
